# Experimental data from US10399989B2, “Pyrazolopyrimidine derivatives as BTK inhibitors for the treatment of cancer” (Loxo Oncology, Inc., priority 2016, dated 2019).
# Where two headings read alike, the source gives them in different places.
# How the values were obtained:
# EGFR = EGFR (Homo sapiens (Human), UniProt P00533); assay: EGFR binding affinity (TR-FRET, LanthaScreen); conditions: 5 h incubation
# Outline: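 IC50 derived by variable-slope fit of TR-FRET signal (ex 340, em 615 and 665 nm) against inhibitor concentration. Mix contained recombinant GST-detected EGFR at 2.5 nM, Eu anti-GST antibody at 2 nM and Kinase Tracer 199 at 3 nM in Kinase Buffer A, 5 h incubation.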
# BTK^WT = BTK^WT (Homo sapiens (Human), UniProt Q06187); assay: BTK^WT binding affinity (TR-FRET, LanthaScreen)
# Outline: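 Tracer-displacement TR-FRET: 2.5 nM recombinant BTK, 2 nM Eu anti-His antibody and 15 nM Kinase Tracer 236 in Kinase Buffer A with inhibitor for 5 h. Emission read at 615/665 nm (excitation 340 nm); IC50 from variable-slope fit of log concentration vs response.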
# [1] = test system: OCI-Ly10 human DLBCL cells; assay: OCI-Ly10 anti-proliferative activity (Resazurin, 72 h); format: cell-based; conditions: read-out: Proliferation OCI-Ly10-IC50
# Outline: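 Resazurin fluorescence (590 nm, 5 h dye incubation) read after 72 h compound exposure at 37 °C; NFκB-dependent cells seeded at 7.5×10^3/well in 2.5% FBS medium. Day 0 signal subtracted, values normalised to DMSO control; IC50 from log[inhibitor] vs response, variable-slope fit.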
# BTK^C481S = BTK^C481S (Homo sapiens (Human), UniProt Q06187, C481S); assay: BTK^C481S binding affinity (TR-FRET, LanthaScreen); conditions: 5 h incubation
# Outline: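 Tracer-displacement TR-FRET: 5 nM recombinant kinase, 2 nM Eu anti-His antibody and 30 nM Kinase Tracer 236 incubated 5 h with varying inhibitor in Kinase Buffer A. Read at 340 nm excitation, 615/665 nm emission. IC50 from log[inhibitor]–response variable-slope fit.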
# [2] = TR-FRET binding, 5 h incubation, read-out: BTK^WT IC50
# [3] = Table 6, numeric values, read-out: BTK Binding IC50
# Sequence of BTK^WT (Q06187 whole entry): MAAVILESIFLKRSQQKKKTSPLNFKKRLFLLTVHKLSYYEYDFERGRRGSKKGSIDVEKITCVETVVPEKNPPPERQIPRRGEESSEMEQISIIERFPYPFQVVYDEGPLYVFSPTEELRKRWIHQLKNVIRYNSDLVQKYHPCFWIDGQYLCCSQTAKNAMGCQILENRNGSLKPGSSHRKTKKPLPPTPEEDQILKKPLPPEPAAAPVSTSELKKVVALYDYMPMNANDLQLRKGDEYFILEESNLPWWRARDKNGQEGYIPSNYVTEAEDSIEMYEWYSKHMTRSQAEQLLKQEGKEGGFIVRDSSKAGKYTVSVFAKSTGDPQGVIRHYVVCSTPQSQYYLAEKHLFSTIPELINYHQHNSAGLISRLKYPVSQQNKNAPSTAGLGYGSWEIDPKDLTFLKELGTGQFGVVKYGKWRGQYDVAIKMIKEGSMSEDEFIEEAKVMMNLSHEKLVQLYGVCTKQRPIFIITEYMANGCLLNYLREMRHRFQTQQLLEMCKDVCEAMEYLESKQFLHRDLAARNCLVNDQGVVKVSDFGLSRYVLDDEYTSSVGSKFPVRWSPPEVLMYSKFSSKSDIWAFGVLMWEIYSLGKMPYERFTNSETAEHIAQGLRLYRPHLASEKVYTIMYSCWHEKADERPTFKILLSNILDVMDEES
# Sequence of BTK^C481S (Q06187 whole entry C481S): as the sequence (Q06187 whole entry) above, with C481S counted along it
# Sequence of EGFR (P00533 25-1210): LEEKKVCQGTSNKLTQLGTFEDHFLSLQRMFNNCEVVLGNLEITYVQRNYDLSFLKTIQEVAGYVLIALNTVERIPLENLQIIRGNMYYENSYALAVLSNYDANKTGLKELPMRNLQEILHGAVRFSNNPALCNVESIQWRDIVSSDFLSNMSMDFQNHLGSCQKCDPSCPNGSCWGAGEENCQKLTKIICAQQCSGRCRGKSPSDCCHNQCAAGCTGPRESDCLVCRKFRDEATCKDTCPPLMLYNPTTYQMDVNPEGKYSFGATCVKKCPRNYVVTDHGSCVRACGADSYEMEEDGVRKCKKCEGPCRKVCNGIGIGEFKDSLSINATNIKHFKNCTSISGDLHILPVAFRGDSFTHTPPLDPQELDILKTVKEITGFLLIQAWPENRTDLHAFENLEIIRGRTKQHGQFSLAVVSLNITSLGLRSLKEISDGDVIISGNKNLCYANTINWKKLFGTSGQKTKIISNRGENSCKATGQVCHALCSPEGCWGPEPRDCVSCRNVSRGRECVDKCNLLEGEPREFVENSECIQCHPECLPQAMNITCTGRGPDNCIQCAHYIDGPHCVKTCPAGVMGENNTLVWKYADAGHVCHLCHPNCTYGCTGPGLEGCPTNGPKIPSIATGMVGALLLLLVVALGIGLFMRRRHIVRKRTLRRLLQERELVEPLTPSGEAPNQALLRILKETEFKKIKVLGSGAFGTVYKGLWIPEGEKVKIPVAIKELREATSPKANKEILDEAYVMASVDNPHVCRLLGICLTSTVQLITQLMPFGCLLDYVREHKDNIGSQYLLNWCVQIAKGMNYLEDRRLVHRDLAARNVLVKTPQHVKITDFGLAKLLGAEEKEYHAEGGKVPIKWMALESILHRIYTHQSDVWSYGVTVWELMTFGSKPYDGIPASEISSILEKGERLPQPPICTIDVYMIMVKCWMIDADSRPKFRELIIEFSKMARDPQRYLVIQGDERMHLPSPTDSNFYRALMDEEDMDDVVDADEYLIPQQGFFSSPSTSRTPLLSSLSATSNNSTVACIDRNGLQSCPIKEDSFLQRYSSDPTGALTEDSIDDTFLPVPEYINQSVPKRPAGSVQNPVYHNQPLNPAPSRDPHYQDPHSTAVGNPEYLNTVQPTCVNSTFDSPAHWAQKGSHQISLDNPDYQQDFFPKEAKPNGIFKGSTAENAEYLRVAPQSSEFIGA
Structure (SMILES),IC50 (EGFR) [nM],IC50 (BTK^WT; [2]) [nM],"IC50 ([1]; Homo sapiens, OCI-Ly10, 72 h) [nM]",IC50 (BTK^C481S) [nM],IC50 (BTK^WT; [3]) [nM],IC50 [1] [nM]
"COCCO[C@H]1C=C[C@H](n2nc(-c3ccc(CNC(=O)c4ccccc4OC)cc3)c3c(N)ncnc32)C1 [Example 57, N-[[4-[4-amino-1-[(1R,4R)-4-(2-methoxyethoxy)cyclopent-2-en-1-yl]pyrazolo[3,4-d]pyrimidin-3-yl]phenyl]methyl]-2-methoxy-benzamide]",1000 to 10000,100 to 1000,100 to 1000,1000 to 10000,,
"CCO[C@H]1C=C[C@H](n2nc(-c3ccc(CNC(=O)c4ccccc4OC)cc3)c3c(N)ncnc32)C1 [Example 55, N-[(4-{4-amino-1-[(1R,4R)-4-ethoxycyclopent-2-en-1-yl]-1H-pyrazolo[3,4-d]pyrimidin-3-yl}phenyl)methyl]-2-methoxybenzamide]",1000 to 10000,10 to 100,100 to 1000,10 to 100,,
"COc1ccc2ccccc2c1C(=O)NCc1ccc(-c2nn(C3CCCC3)c3ncnc(N)c23)cc1 [Example 68, N-[[4-(4-amino-1-cyclopentyl-pyrazolo[3,4-d]pyrimidin-3-yl)phenyl]methyl]-2-methoxy-naphthalene-1-carboxamide]",1000 to 10000,100 to 1000,1000 to 10000,100 to 1000,,
"COc1ccc(F)cc1C(=O)NCc1ccc(-c2nn(C3CCC(C)(O)CC3)c3ncnc(N)c23)cc1 (single isomer, unassigned) [Example 95, N-[[4-[4-Amino-1-(4-hydroxy-4-methyl-cyclohexyl)pyrazolo[3,4-d]pyrimidin-3-yl]phenyl]methyl]-5-fluoro-2-methoxy-benzamide]",100 to 1000,≤ 10,,≤ 10,,10 to 100
"COc1ccccc1C(=O)NCc1ccc(-c2nn([C@H]3C=C[C@H](N)C3)c3ncnc(N)c23)cc1 [Example 59, N-[(4-{4-amino-1-[(1R,4R)-4-aminocyclopent-2-en-1-yl]-1H-pyrazolo[3,4-d]pyrimidin-3-yl}phenyl)methyl]-2-methoxybenzamide]",1000 to 10000,10 to 100,100 to 1000,10 to 100,,
"COc1ccc(F)cc1C(=O)NCc1ccc(-c2nn([C@H]3C=C[C@H](O)C3)c3ncnc(N)c23)cc1 [Example 53, N-[[4-[4-Amino-1-[(1R,4R)-4-hydroxycyclopent-2-en-1-yl]pyrazolo[3,4-d]pyrimidin-3-yl]phenyl]methyl]-5-fluoro-2-methoxy-benzamide]",1000 to 10000,10 to 100,1000 to 10000,≤ 10,,
"COc1ccccc1C(=O)NCc1ccc(-c2nn([C@@H]3C=C[C@@H](O)C3)c3ncnc(N)c23)cc1 [Example 50, N-[[4-[4-amino-1-[(1S,4S)-4-hydroxycyclopent-2-en-1-yl]pyrazolo[3,4-d]pyrimidin-3-yl]phenyl]methyl]-2-methoxy-benzamide]",100 to 1000,≤ 10,100 to 1000,≤ 10,,
"COc1ccccc1C(=O)NCc1ccc(-c2nn(C3CCC(OC(=O)c4ccc(C)cc4)CC3)c3ncnc(N)c23)cc1 (stereo not drawn) [Example 46, [4-[4-amino-3-[4-[[(2-methoxybenzoyl)amino]methyl]phenyl]pyrazolo[3,4-d]pyrimidin-1-yl]cyclohexyl] 4-methylbenzoate]",100 to 1000,10 to 100,100 to 1000,10 to 100,,
"COc1ccc(F)cc1C(=O)NCc1ccc(-c2nn(C3CCCC3)c3ncnc(N)c23)cc1F [Example 63, N-[[4-(4-Amino-1-cyclopentyl-pyrazolo[3,4-d]pyrimidin-3-yl)-2-fluoro-phenyl]methyl]-5-fluoro-2-methoxy-benzamide]",1000 to 10000,≤ 10,10 to 100,≤ 10,,
"Nc1ncnc2c1c(-c1ccc(CNC(=O)c3nccc4ccccc34)cc1)nn2C1CCCC1 [Example 69, N-[[4-(4-amino-1-cyclopentyl-pyrazolo[3,4-d]pyrimidin-3-yl)phenyl]methyl]isoquinoline-1-carboxamide]",1000 to 10000,100 to 1000,1000 to 10000,100 to 1000,,
"COc1ccc(Cl)cc1C(=O)NCc1ccc(-c2nn(C3CCCC3)c3ncnc(N)c23)cc1 [Example 11, N-[[4-(4-amino-1-cyclopentyl-pyrazolo[3,4-d]pyrimidin-3-yl)phenyl]methyl]-5-chloro-2-methoxy-benzamide]",1000 to 10000,≤ 10,10 to 100,≤ 10,,
"COc1ccccc1C(=O)NCc1ccc(-c2nn(C3CCCC(O)C3)c3ncnc(N)c23)cc1 (stereo not drawn) [Example 37, N-[[4-[4-amino-1-(3-hydroxycyclohexyl)pyrazolo[3,4-d]pyrimidin-3-yl]phenyl]methyl]-2-methoxy-benzamide]",100 to 1000,≤ 10,100 to 1000,≤ 10,1.7,
"COc1ccccc1C(=O)NCc1ccc(-c2nn(CC(C)O)c3ncnc(N)c23)cc1 (stereo not drawn) [Example 74, N-[[4-[4-amino-1-(2-hydroxypropyl)pyrazolo[3,4-d]pyrimidin-3-yl]phenyl]methyl]-2-methoxy-benzamide]",1000 to 10000,10 to 100,100 to 1000,10 to 100,,

# Now from value to compound:
IC50 (EGFR) [nM],IC50 (BTK^WT; [2]) [nM],"IC50 ([1]; Homo sapiens, OCI-Ly10, 72 h) [nM]",IC50 (BTK^C481S) [nM],IC50 (BTK^WT; [3]) [nM],IC50 [1] [nM],Structure (SMILES)
100 to 1000,10 to 100,100 to 1000,≤ 10,,,"COc1ccccc1C(=O)NCc1ccc(-c2nn(C3CCC(=O)CC3)c3ncnc(N)c23)cc1 [Example 26, N-[[4-[4-amino-1-(4-oxocyclohexyl)pyrazolo[3,4-d]pyrimidin-3-yl]phenyl]methyl]-2-methoxy-benzamide]"
100 to 1000,≤ 10,10 to 100,≤ 10,,,"COc1ccc(F)cc1C(=O)NCc1ccc(-c2nn(C3CCC(C)(O)CC3)c3ncnc(N)c23)cc1 (single isomer, unassigned) [Example 94, N-[[4-[4-Amino-1-(4-hydroxy-4-methyl-cyclohexyl)pyrazolo[3,4-d]pyrimidin-3-yl]phenyl]methyl]-5-fluoro-2-methoxy-benzamide]"
100 to 1000,≤ 10,10 to 100,≤ 10,1.4,,"COc1ccccc1C(=O)NCc1ccc(-c2nn(C3CCC(OC)CC3)c3ncnc(N)c23)cc1 (stereo not drawn) [Example 39, N-[[4-[4-amino-1-(4-methoxycyclohexyl)pyrazolo[3,4-d]pyrimidin-3-yl]phenyl]methyl]-2-methoxy-benzamide]"
100 to 1000,10 to 100,100 to 1000,10 to 100,,,"COc1ccncc1C(=O)NCc1ccc(-c2nn(C3CCCC3)c3ncnc(N)c23)cc1 [Example 27, N-[[4-(4-amino-1-cyclopentyl-pyrazolo[3,4-d]pyrimidin-3-yl)phenyl]methyl]-4-methoxy-pyridine-3-carboxamide]"
100 to 1000,≤ 10,100 to 1000,≤ 10,,,"COc1ccccc1C(=O)NCc1ccc(-c2nn([C@H]3C=C[C@@H](O)C3)c3ncnc(N)c23)cc1 [Example 47, N-[[4-[4-amino-1-[(1R,4S)-4-hydroxycyclopent-2-en-1-yl]pyrazolo[3,4-d]pyrimidin-3-yl]phenyl]methyl]-2-methoxy-benzamide]"
10 to 100,≤ 10,10 to 100,≤ 10,0.6,,"COc1ccccc1C(=O)NCc1ccc(-c2nn(C(C)(C)C)c3ncnc(N)c23)cc1 [Example 51, N-[[4-(4-amino-1-tert-butyl-pyrazolo[3,4-d]pyrimidin-3-yl)phenyl]methyl]-2-methoxy-benzamide]"
10 to 100,≤ 10,10 to 100,≤ 10,0.4,,"COc1ccccc1C(=O)NCc1ccc(-c2nn(C3C=CCCC3)c3ncnc(N)c23)cc1 (stereo not drawn) [Example 49, N-[[4-(4-amino-1-cyclohex-2-en-1-yl-pyrazolo[3,4-d]pyrimidin-3-yl)phenyl]methyl]-2-methoxy-benzamide]"
